Series [1] concerns rat hepatocytes. The experiment in a line: Hepatocyte intrinsic clearance. It counts as in vitro ADME.
The test system of series [2] is human hepatocytes. The experiment in a line: Hepatocyte intrinsic clearance. The class given is in vitro ADME.

For `CC#Cc1cncc(-c2cc(Cl)c([C@]3(C)CC(=O)N(C)C(=N)N3)s2)c1` [Compound 16], the intrinsic clearance is on record as 4.9 μL.min^−1 ·10^6 cells in series [1] and 2.7 μL.min^−1 ·10^6 cells in series [2].

The record behind these values is PMC3568987 (ACS medicinal chemistry letters, 2012).
